Tested on: Plasmodium berghei
Experiment: Luciferase/luciferin-expressing antifolate-resistant parasites were used to infect a culture of HepG2 cells that were pre-incubated with compounds. Infected hepatocytes emit light due to the luciferase reaction. Assay results are presented as the percent inhibition of light emission compared to control. […]
Type: functional
Conditions: sporozoite; for IC90: read-out: LUCIFERASE INFECTION ASSAY - IC90

Compound | IC90 | other results
O=[N+]([O-])c1ccc(Oc2ccc(F)cc2Br)c2ccncc12 | 9.13 µM | IC50 (HEPG2TOX_HILL_SLOPE 8.14, 7.27, HEPG2TOX_R_SQUARED 0.719, 0.841, PBLUC_HILL_SLOPE 4.57, PBLUC_R_SQUARED 0.39, read-out: LUCIFERASE INFECTION ASSAY - IC50): 5.65 µM
OCc1ccc(-c2ccc3ncc(-c4cccnc4)n3n2)cc1 | 1.91 µM | IC50 (HEPG2TOX_HILL_SLOPE 8.03, HEPG2TOX_R_SQUARED 0.878, PBLUC_HILL_SLOPE 5.07, PBLUC_R_SQUARED 0.745, read-out: LUCIFERASE INFECTION ASSAY - IC50): 1.24 µM
CN1CCN(c2ccc(-c3cn4c(-c5cccc(O)c5)cnc4cn3)cc2)CC1 | > 8.56 µM | IC50 (HEPG2TOX_HILL_SLOPE 8.09, HEPG2TOX_R_SQUARED 0.0909, PBLUC_HILL_SLOPE 1.65, PBLUC_R_SQUARED 0.318, read-out: LUCIFERASE INFECTION ASSAY - IC50): 7.19 µM
COc1cc(/C=C(/C(=O)c2cccc(Cl)c2)c2nc3ccccc3[nH]2)ccc1OCc1ccccc1 | > 10 µM | IC50 (HEPG2TOX_HILL_SLOPE 8.02, HEPG2TOX_R_SQUARED 0.115, read-out: LUCIFERASE INFECTION ASSAY - IC50): > 10 µM
Cc1ccc(S(=O)(=O)Oc2ccccc2/C=N/N=C2\NC(=O)CS2)cc1Cl | > 10 µM | IC50 (HEPG2TOX_HILL_SLOPE 8.05, HEPG2TOX_R_SQUARED 0.112, PBLUC_HILL_SLOPE 0.841, PBLUC_R_SQUARED 0.28, read-out: LUCIFERASE INFECTION ASSAY - IC50): > 10 µM
CC(C)c1ccc(Nc2nccc3nc(-c4cccc(C(F)(F)F)c4)[nH]c23)cc1 | > 10 µM | IC50 (HEPG2TOX_HILL_SLOPE 8.02, HEPG2TOX_R_SQUARED 0.493, PBLUC_HILL_SLOPE 1.32, PBLUC_R_SQUARED 0.475, read-out: LUCIFERASE INFECTION ASSAY - IC50): 4.04 µM
CCC(C)(C)c1ccc(Oc2ccc(NC(=O)CN3CCN(c4ccccc4O)CC3)cc2)cc1 | > 10 µM | IC50 (HEPG2TOX_HILL_SLOPE 8.11, HEPG2TOX_R_SQUARED 0.399, read-out: LUCIFERASE INFECTION ASSAY - IC50): > 10 µM
CCCn1c(NC(=O)c2c(C)nn(Cc3ccccc3)c2Cl)nc2ccccc21 | > 10 µM | IC50 (HEPG2TOX_HILL_SLOPE 8.06, 7.61, HEPG2TOX_R_SQUARED 0.217, 0.871, PBLUC_HILL_SLOPE 3.35, PBLUC_R_SQUARED 0.605, read-out: LUCIFERASE INFECTION ASSAY - IC50): 5.57 µM
Cn1cc(C(=O)c2ccccc2O)cc1-c1nc2ccccc2[nH]1 | 4.94 µM | IC50 (HEPG2TOX_HILL_SLOPE 8.08, HEPG2TOX_R_SQUARED 0.741, PBLUC_HILL_SLOPE 7.01, PBLUC_R_SQUARED 0.754, read-out: LUCIFERASE INFECTION ASSAY - IC50): 3.61 µM
O=C(/C=C/c1ccc(-n2nncc2-c2ccccc2)cc1)c1ccccc1 | > 10 µM | IC50 (HEPG2TOX_HILL_SLOPE 8.1, HEPG2TOX_R_SQUARED 0.474, PBLUC_HILL_SLOPE 4.46, PBLUC_R_SQUARED 0.811, read-out: LUCIFERASE INFECTION ASSAY - IC50): 6.74 µM
CCN1C(=O)N(CCC(C)C)C2(CCN(Cc3ccc4c(c3)Cc3ccccc3-4)CC2)C1=O | > 7.41 µM | IC50 (HEPG2TOX_HILL_SLOPE 8.09, HEPG2TOX_R_SQUARED 0.945, PBLUC_HILL_SLOPE 9.13, PBLUC_R_SQUARED 0.509, read-out: LUCIFERASE INFECTION ASSAY - IC50): 5.93 µM
COc1ccc(/C=C(/C(=O)Nc2ccc(Cl)cc2)c2nc3ccccc3s2)cc1O | 4.29 µM | IC50 (HEPG2TOX_HILL_SLOPE 8.13, HEPG2TOX_R_SQUARED 0.744, PBLUC_HILL_SLOPE 10.1, PBLUC_R_SQUARED 0.615, read-out: LUCIFERASE INFECTION ASSAY - IC50): 3.45 µM
CCc1ccc(-c2noc(CN3CCN(C(=O)c4ccccc4)CC3)n2)cc1 | > 10 µM | IC50 (HEPG2TOX_HILL_SLOPE 8.06, HEPG2TOX_R_SQUARED 0.791, read-out: LUCIFERASE INFECTION ASSAY - IC50): > 10 µM
CCn1c(NC(=O)c2[nH]nc3ccccc23)nc2ccccc21 | > 10 µM | IC50 (HEPG2TOX_HILL_SLOPE 8.17, HEPG2TOX_R_SQUARED 0.11, PBLUC_HILL_SLOPE 5.04, PBLUC_R_SQUARED 0.686, read-out: LUCIFERASE INFECTION ASSAY - IC50): 7.76 µM
O=C(c1ccsc1)N1CCc2nc(NCc3cccc(Oc4ccccc4)c3)ncc2C1 | > 7.46 µM | IC50 (HEPG2TOX_HILL_SLOPE 8.11, HEPG2TOX_R_SQUARED 0.885, read-out: LUCIFERASE INFECTION ASSAY - IC50): > 7.46 µM
NC(=S)COc1cc(Cl)cc(Cl)c1 | > 14 µM | IC50 (HEPG2TOX_HILL_SLOPE 8.05, HEPG2TOX_R_SQUARED 0.893, PBLUC_HILL_SLOPE 16, PBLUC_R_SQUARED 0.105, read-out: LUCIFERASE INFECTION ASSAY - IC50): 13.4 µM

Compound | IC90 | other results
CCOC(=O)NC1=C/C(=N\S(=O)(=O)c2ccc(C)cc2)c2ccccc2C1=O | > 10 µM | IC50 (HEPG2TOX_HILL_SLOPE 8.17, HEPG2TOX_R_SQUARED 0.938, PBLUC_HILL_SLOPE 4.13, PBLUC_R_SQUARED 0.0669, read-out: LUCIFERASE INFECTION ASSAY - IC50): > 10 µM
Cc1ccc2nc(NC(=O)c3ccccc3C(F)(F)F)c(C(=O)NCC(C)C)n2c1 | 7.86 µM | IC50 (HEPG2TOX_HILL_SLOPE 8.05, HEPG2TOX_R_SQUARED 0.91, PBLUC_HILL_SLOPE 18.7, PBLUC_R_SQUARED 0.209, read-out: LUCIFERASE INFECTION ASSAY - IC50): 6.99 µM
CC(C)OCc1cccc(NC(=O)Nc2cccc(Cl)c2)c1 | 1.8 µM | IC50 (HEPG2TOX_HILL_SLOPE 8.19, HEPG2TOX_R_SQUARED 0.0219, PBLUC_HILL_SLOPE 262, PBLUC_R_SQUARED 0.512, read-out: LUCIFERASE INFECTION ASSAY - IC50): 1.78 µM
O=C(Nc1cccc(C(F)(F)F)c1)Nc1ccc2nc(-c3ccoc3)nn2c1 | 5.31 µM | IC50 (HEPG2TOX_HILL_SLOPE 8.17, HEPG2TOX_R_SQUARED 0.681, PBLUC_HILL_SLOPE 272, PBLUC_R_SQUARED 0.378, read-out: LUCIFERASE INFECTION ASSAY - IC50): 5.27 µM
CS(=O)(=O)c1ccc(N2CCN(c3ccnc4cc(Cl)ccc34)CC2)c([N+](=O)[O-])c1 | 8.81 µM | IC50 (HEPG2TOX_HILL_SLOPE 8.04, HEPG2TOX_R_SQUARED 0.676, PBLUC_HILL_SLOPE 3.39, PBLUC_R_SQUARED 0.378, read-out: LUCIFERASE INFECTION ASSAY - IC50): 4.61 µM
COc1ccc(Nc2cc3[nH]c(-c4cccc(C(F)(F)F)c4)cc3cn2)c(C)c1 | > 10 µM | IC50 (HEPG2TOX_HILL_SLOPE 8.02, HEPG2TOX_R_SQUARED 0.0629, PBLUC_HILL_SLOPE 11.9, PBLUC_R_SQUARED 0.386, read-out: LUCIFERASE INFECTION ASSAY - IC50): 8.34 µM
O=C(NC1CCSc2ccccc21)c1cnn(Cc2ccccc2Cl)c1 (configuration not stated) | > 10 µM | IC50 (HEPG2TOX_HILL_SLOPE 8.01, HEPG2TOX_R_SQUARED 0.477, PBLUC_HILL_SLOPE 11.5, PBLUC_R_SQUARED 0.343, read-out: LUCIFERASE INFECTION ASSAY - IC50): 9.41 µM
COc1cc(C2(O)CS/C(=C(/C#N)C(=O)Nc3ccc(Cl)cc3)N2c2ccccc2)cc(OC)c1OC (configuration not stated) | > 10 µM | IC50 (HEPG2TOX_HILL_SLOPE 8.02, HEPG2TOX_R_SQUARED 0.929, PBLUC_HILL_SLOPE 8.63, PBLUC_R_SQUARED 0.488, read-out: LUCIFERASE INFECTION ASSAY - IC50): 8.71 µM
CNC(=O)c1ccc(/C=C/C(=O)c2ccc3c4c(cccc24)CC3)cc1 | 9.31 µM | IC50 (HEPG2TOX_HILL_SLOPE 8.19, HEPG2TOX_R_SQUARED 0.612, PBLUC_HILL_SLOPE 20.8, PBLUC_R_SQUARED 0.622, read-out: LUCIFERASE INFECTION ASSAY - IC50): 8.38 µM
O=C(CSCc1nc(-c2ccc(Cl)cc2)cs1)NNS(=O)(=O)c1ccc(Cl)cc1 | > 6.76 µM | IC50 (HEPG2TOX_HILL_SLOPE 8.04, HEPG2TOX_R_SQUARED 0.486, read-out: LUCIFERASE INFECTION ASSAY - IC50): > 6.76 µM
O=C(CSc1ccc(S(=O)(=O)N2CCCCCC2)cn1)N1CCN(c2ccccc2F)CC1 | > 10 µM | IC50 (HEPG2TOX_HILL_SLOPE 8.02, HEPG2TOX_R_SQUARED 0.252, PBLUC_HILL_SLOPE 16.3, 0.0846, PBLUC_R_SQUARED 0.285, 0.0684, read-out: LUCIFERASE INFECTION ASSAY - IC50): 9.76 µM
Cc1ccc(-c2csc(Nc3ccccn3)n2)c(C)c1 | > 10 µM | IC50 (HEPG2TOX_HILL_SLOPE 8.07, HEPG2TOX_R_SQUARED 0.196, PBLUC_HILL_SLOPE 0.693, PBLUC_R_SQUARED 0.516, read-out: LUCIFERASE INFECTION ASSAY - IC50): 0.441 µM
CCc1cc(OCCCCCCN2CCC(C)CC2)ccc1Cl | 7.91 µM | IC50 (HEPG2TOX_HILL_SLOPE 8.01, HEPG2TOX_R_SQUARED 0.5, PBLUC_HILL_SLOPE 3.89, PBLUC_R_SQUARED 0.522, read-out: LUCIFERASE INFECTION ASSAY - IC50): 4.49 µM
Cc1c(-c2ccccc2)oc2c(C(=O)N(Cc3ccccc3Cl)S(=O)(=O)c3cccc(C(F)(F)F)c3)cccc2c1=O | > 10 µM | IC50 (HEPG2TOX_HILL_SLOPE 8.04, HEPG2TOX_R_SQUARED 0.64, PBLUC_HILL_SLOPE 8.59, PBLUC_R_SQUARED 0.6, read-out: LUCIFERASE INFECTION ASSAY - IC50): 7.82 µM
O=C(Nc1ccc(Cl)c(C(F)(F)F)c1)Nc1ccc2nc(-c3ccsc3)nn2c1 | 9.25 µM | IC50 (HEPG2TOX_HILL_SLOPE 8.17, HEPG2TOX_R_SQUARED 0.277, PBLUC_HILL_SLOPE 11.1, PBLUC_R_SQUARED 0.655, read-out: LUCIFERASE INFECTION ASSAY - IC50): 7.59 µM
